Results as given in ChEMBL document CHEMBL4673364, “Synthesis and cytotoxic activity of new 7-acetoxy-12-amino-14-deoxy andrographolide analogues” (Bioorg Med Chem Lett, 2021).

What was measured:
[1] = Cytotoxicity against rat ASK cells assessed as reduction in cell viability by SRB assay; type: functional, cell-based
[2] = Cytotoxicity against human P388 cells assessed as reduction in cell viability by SRB assay; type: functional, cell-based
[3] = Cytotoxicity against human K055 cells assessed as reduction in cell viability by SRB assay; type: functional, cell-based
[4] = tested on: MCF7; test: Cytotoxicity against human MCF7 cells assessed as reduction in cell viability by SRB assay; type: functional, cell-based
[5] = Potency index, ratio of andrographolide IC50 to test compound IC50 for cytotoxicity against […] cells; type: functional
[6] = tested on: HT-29; test: Cytotoxicity against human HT-29 cells assessed as reduction in cell viability by SRB assay; type: functional, cell-based
[7] = Cytotoxicity against human K213 cells assessed as reduction in cell viability by SRB assay; type: functional, cell-based
[8] = tested on: KB; test: Cytotoxicity against human KB cells assessed as reduction in cell viability by SRB assay; type: functional, cell-based
[9] = tested on: A549; test: Cytotoxicity against human A549 cells assessed as reduction in cell viability by SRB assay; type: functional, cell-based
[10] = Potency index, ratio of andrographolide IC50 to test compound IC50 for cytotoxicity against human K055 cells; type: functional
[11] = tested on: KB; test: Potency index, ratio of andrographolide IC50 to test compound IC50 for cytotoxicity against human KB cells; type: functional
[12] = Potency index, ratio of andrographolide IC50 to test compound IC50 for cytotoxicity against human K213 cells; type: functional
[13] = tested on: MCF7; test: Potency index, ratio of andrographolide IC50 to test compound IC50 for cytotoxicity against human MCF7 cells; type: functional

SMILES: C=C1[C@@H](OC(C)=O)C[C@@H]2[C@](C)(CO[Si](C)(C)C(C)(C)C)[C@H](OC(C)=O)CC[C@@]2(C)[C@@H]1C[C@@H](Nc1ccccc1)C1=CCOC1=O
- IC50 [1]: 4.96 µM
- IC50 [2]: 4.4 µM
- IC50 [3]: 4.43 µM
- IC50 [4]: 4.84 µM
- Ratio IC50 [5]: 9
- IC50 [6]: 4.05 µM
- IC50 [7]: 5.7 µM
- IC50 [8]: 5.71 µM
- IC50 [9]: 4.5 µM

SMILES: C=C1[C@@H](OC(C)=O)C[C@@H]2[C@](C)(CO[Si](C)(C)C(C)(C)C)[C@H](OC(C)=O)CC[C@@]2(C)[C@@H]1C/C=C1/C(=O)OC[C@H]1OC(C)=O
- IC50 [1]: 4.11 µM
- IC50 [2]: 0.43 µM
- IC50 [3]: 4.43 µM
- IC50 [4]: 4.54 µM
- IC50 [6]: 4.94 µM
- IC50 [7]: 4.81 µM
- Ratio IC50 [10]: 8
- IC50 [8]: 5.02 µM
- Ratio IC50 [11]: 8
- IC50 [9]: 4.64 µM
- Ratio IC50 [12]: 8

SMILES: C=C1[C@@H](OC(C)=O)C[C@@H]2[C@](C)(CO[Si](C)(C)C(C)(C)C)[C@H](OC(C)=O)CC[C@@]2(C)[C@@H]1C[C@@H](Nc1ccc(F)cc1)C1=CCOC1=O
- IC50 [1]: 4.63 µM
- IC50 [2]: 4 µM
- IC50 [3]: 5.43 µM
- IC50 [4]: 4.34 µM
- IC50 [6]: 4.94 µM
- IC50 [7]: 5.25 µM
- IC50 [8]: 5.09 µM
- IC50 [9]: 4.55 µM
- Ratio IC50 [13]: 7

SMILES: C=C1[C@@H](OC(C)=O)C[C@@H]2[C@](C)(CO[Si](C)(C)C(C)(C)C)[C@H](OC(C)=O)CC[C@@]2(C)[C@@H]1C[C@@H](Nc1ccc(Br)cc1)C1=CCOC1=O
- IC50 [1]: 4.84 µM
- IC50 [2]: 4.19 µM
- IC50 [3]: 5.34 µM
- IC50 [4]: 3.92 µM
- IC50 [6]: 4.59 µM
- IC50 [7]: 5.44 µM
- IC50 [8]: 5.23 µM
- IC50 [9]: 4.15 µM
- Ratio IC50 [13]: 7

SMILES: C=C1[C@@H](OC(C)=O)C[C@@H]2[C@](C)(CO[Si](C)(C)C(C)(C)C)[C@H](OC(C)=O)CC[C@@]2(C)[C@@H]1C[C@@H](Nc1cccc(F)c1)C1=CCOC1=O
- IC50 [1]: 3.7 µM
- IC50 [2]: 2.81 µM
- IC50 [3]: 5.41 µM
- IC50 [4]: 3.82 µM
- IC50 [6]: 4.52 µM
- IC50 [7]: 5.28 µM
- IC50 [8]: 4.56 µM
- IC50 [9]: 4.06 µM
- Ratio IC50 [13]: 7
